The source made the active and inactive calls.
Assays:
[1] = test system: BJ; test: cells; assay type: functional, cell-based; conditions: Homo sapiens
[2] = test system: BJ; test: BJ-TERT-LT-ST fibroblast viability loss – cell-based, RAS-independent, luminescence, dose response (AID 1935); assay type: functional; conditions: Homo sapiens;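 note: BJ fibroblasts immortalized with TERT plus LT and ST oncogenes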
[3] = test system: BJ; test: BJ-TERT fibroblast viability loss – cell-based, RAS-independent, luminescence, dose response (AID 1933); assay type: functional; conditions: Homo sapiens
[4] = DRD fibroblast viability loss – cell-based, non-viral oncogenic, luminescence, dose response (AID 1934); assay type: functional; conditions: Homo sapiens
[5] = HEK-293T viability loss after treatment – luminescence, T-cell screen hits, cytotoxicity control for TCR NF-kB inhibitor project, dose response (AID 489026); assay type: functional, cell-based;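 note: cells exposed to compound about 14 hours before the viability readout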
[6] = test system: J774.A1; test: Confirmation of image-based Screening Assay for Inhibitors of Phagocytosis. [Related pubchem assays (depositor defined):AID1029, AID1643]; assay type: functional, cell-based; conditions: Mus musculus
[7] = target: T1, Neuropeptides B/W receptor type 1 (Homo sapiens, UniProt P48145); test: Fluorescence-based dose response cell-based high throughput screening assay to identify antagonists of the G-protein coupled receptor 7 (GPR7). [Related pubchem assays: 1952 (Screening assay (GPR7 antagonists).), 1880 (Summary AID.)]; assay type: functional
T1 sequence (P48145 whole entry): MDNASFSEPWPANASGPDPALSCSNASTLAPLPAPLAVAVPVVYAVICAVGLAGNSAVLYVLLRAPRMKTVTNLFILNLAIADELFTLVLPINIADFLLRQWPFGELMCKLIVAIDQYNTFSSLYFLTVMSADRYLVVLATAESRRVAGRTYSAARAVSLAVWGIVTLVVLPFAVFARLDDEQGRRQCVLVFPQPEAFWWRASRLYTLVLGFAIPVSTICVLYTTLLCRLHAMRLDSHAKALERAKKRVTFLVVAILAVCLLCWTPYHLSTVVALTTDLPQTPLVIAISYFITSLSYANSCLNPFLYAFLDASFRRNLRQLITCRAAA

[8] = target: Melanin-concentrating hormone receptor 1 (Homo sapiens, UniProt Q99705); test: Fluorescence-based counterscreen for antagonists of the G-protein coupled receptor 7 (GPR7): cell-based high throughput dose response assay to identify antagonists of the melanin-concentrating hormone receptor 1 (MCHR1).; assay type: functional
Chain of Melanin-concentrating hormone receptor 1 (Q99705 whole entry): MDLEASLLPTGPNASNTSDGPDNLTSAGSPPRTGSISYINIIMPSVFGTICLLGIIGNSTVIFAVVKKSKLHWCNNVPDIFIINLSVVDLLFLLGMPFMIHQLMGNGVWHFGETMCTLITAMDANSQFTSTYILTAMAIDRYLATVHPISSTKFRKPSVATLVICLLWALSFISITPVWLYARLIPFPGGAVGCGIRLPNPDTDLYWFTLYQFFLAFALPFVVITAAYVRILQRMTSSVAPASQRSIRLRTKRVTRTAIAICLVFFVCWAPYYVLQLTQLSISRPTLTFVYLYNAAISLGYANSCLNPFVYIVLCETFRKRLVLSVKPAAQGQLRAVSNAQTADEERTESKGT

[9] = target: Heat shock protein HSP 90-alpha (Homo sapiens, UniProt P07900); assay type: functional, organism-based
[10] = target: Lysosomal acid glucosylceramidase (Homo sapiens, UniProt P04062); test: Dose response cell-based high throughput screening assay to identify enhancers of beta-glucosidase activity. [Related pubchem assays: 784 ]; assay type: functional
Chain of Lysosomal acid glucosylceramidase (P04062 whole entry): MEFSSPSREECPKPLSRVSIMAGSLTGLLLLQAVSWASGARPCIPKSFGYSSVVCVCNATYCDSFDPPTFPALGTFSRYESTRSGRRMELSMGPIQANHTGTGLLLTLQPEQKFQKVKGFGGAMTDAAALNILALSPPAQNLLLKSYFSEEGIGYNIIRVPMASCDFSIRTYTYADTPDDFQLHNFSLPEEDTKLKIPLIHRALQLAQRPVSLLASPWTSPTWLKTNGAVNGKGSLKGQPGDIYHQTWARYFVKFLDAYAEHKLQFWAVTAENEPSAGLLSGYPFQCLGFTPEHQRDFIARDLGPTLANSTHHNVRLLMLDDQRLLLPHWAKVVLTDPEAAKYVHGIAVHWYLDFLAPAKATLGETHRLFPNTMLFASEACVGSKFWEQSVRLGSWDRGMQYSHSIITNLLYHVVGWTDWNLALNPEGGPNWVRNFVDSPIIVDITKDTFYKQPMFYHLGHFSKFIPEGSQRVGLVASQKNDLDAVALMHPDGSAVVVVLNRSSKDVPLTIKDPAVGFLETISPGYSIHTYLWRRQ

[11] = target: Intestinal-type alkaline phosphatase (Homo sapiens, UniProt P09923); test: Dose Response confirmation of uHTS hits from a small molecule inhibitors of human intestinal alkaline phosphatase via a luminescent assay. [Related pubchem assays (depositor defined):AID2544, AID2574]; assay type: functional
Chain of Intestinal-type alkaline phosphatase (P09923 whole entry, the tested form may be a part): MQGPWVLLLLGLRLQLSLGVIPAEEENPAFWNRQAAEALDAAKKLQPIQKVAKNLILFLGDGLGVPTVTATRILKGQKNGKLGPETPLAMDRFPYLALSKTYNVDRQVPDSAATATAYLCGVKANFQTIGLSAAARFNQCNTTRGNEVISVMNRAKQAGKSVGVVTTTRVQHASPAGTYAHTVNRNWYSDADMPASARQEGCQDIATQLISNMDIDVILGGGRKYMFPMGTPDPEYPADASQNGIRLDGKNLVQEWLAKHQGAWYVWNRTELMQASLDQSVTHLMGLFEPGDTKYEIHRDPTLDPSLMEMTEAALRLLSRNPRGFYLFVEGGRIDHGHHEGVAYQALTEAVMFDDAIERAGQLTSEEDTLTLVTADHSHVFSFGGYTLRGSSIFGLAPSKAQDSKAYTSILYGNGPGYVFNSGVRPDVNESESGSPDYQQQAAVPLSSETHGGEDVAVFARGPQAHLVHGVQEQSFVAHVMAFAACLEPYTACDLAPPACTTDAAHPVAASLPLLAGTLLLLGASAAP

[12] = target: NACHT, LRR and PYD domains-containing protein 1 (Homo sapiens, UniProt Q9C000); test: NALP1 inhibitors in yeast, dose response, luminescent (AID 488860); assay type: functional
Chain of NACHT, LRR and PYD domains-containing protein 1 (Q9C000 1-1212 limits assumed): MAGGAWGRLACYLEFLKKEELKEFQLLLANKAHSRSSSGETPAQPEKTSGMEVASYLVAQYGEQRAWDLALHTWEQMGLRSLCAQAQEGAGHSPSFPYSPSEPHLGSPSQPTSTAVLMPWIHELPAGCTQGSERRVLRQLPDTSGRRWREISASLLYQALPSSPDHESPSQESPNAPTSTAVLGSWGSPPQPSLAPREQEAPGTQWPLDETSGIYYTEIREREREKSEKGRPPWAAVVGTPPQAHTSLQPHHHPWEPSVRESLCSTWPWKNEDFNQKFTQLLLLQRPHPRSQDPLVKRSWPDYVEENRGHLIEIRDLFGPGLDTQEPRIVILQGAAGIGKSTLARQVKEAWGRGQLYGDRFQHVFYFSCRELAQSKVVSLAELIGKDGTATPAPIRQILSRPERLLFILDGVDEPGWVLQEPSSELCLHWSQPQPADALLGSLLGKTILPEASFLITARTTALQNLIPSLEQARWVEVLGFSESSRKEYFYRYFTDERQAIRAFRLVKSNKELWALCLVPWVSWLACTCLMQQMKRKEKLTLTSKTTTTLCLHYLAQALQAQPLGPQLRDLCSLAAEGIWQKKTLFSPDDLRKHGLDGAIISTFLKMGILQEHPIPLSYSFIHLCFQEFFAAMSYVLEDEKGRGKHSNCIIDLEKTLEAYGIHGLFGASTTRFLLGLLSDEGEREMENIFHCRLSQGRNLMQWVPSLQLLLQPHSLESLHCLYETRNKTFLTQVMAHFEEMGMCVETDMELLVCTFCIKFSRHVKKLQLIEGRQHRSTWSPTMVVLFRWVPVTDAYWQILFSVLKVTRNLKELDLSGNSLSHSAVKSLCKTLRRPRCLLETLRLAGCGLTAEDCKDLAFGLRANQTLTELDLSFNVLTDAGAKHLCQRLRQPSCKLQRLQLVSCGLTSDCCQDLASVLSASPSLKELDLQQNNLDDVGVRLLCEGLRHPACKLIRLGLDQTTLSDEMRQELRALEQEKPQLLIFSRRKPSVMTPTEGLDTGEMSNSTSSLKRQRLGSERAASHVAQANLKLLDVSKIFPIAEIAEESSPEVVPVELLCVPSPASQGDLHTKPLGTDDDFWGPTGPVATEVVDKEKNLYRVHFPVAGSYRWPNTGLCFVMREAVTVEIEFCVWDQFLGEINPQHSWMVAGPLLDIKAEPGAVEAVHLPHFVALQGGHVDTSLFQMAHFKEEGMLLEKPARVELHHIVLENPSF
Chain of NACHT, LRR and PYD domains-containing protein 1 (Q9C000 1213-1473 limits assumed): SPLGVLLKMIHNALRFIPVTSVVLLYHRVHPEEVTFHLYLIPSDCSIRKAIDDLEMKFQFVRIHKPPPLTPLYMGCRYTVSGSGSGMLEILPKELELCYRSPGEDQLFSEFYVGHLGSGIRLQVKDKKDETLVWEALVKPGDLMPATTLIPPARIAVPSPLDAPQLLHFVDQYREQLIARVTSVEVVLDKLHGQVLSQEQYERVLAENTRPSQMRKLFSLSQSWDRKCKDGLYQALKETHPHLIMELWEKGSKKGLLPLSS

[13] = fluconazole-exposed Candida albicans growth modulators – fluorescence, retest, confirmation (AID 2467); assay type: functional, cell-based
[14] = test system: Saccharomyces cerevisiae; test: S. cerevisiae Caspase-1/ASC signal blockers IC50, NALP1 inhibitor project selectivity test (AID 488863); assay type: functional, organism-based
[15] = target: Beta-galactosidase (Escherichia coli, UniProt Q8VNN2); test: detection-enzyme interference by beta-gal modulators – biochemical, E. coli enzyme, set 3, artefact control for CCR6 antagonist project, dose response (AID 504712); assay type: functional
Chain of Beta-galactosidase (Q8VNN2 whole entry): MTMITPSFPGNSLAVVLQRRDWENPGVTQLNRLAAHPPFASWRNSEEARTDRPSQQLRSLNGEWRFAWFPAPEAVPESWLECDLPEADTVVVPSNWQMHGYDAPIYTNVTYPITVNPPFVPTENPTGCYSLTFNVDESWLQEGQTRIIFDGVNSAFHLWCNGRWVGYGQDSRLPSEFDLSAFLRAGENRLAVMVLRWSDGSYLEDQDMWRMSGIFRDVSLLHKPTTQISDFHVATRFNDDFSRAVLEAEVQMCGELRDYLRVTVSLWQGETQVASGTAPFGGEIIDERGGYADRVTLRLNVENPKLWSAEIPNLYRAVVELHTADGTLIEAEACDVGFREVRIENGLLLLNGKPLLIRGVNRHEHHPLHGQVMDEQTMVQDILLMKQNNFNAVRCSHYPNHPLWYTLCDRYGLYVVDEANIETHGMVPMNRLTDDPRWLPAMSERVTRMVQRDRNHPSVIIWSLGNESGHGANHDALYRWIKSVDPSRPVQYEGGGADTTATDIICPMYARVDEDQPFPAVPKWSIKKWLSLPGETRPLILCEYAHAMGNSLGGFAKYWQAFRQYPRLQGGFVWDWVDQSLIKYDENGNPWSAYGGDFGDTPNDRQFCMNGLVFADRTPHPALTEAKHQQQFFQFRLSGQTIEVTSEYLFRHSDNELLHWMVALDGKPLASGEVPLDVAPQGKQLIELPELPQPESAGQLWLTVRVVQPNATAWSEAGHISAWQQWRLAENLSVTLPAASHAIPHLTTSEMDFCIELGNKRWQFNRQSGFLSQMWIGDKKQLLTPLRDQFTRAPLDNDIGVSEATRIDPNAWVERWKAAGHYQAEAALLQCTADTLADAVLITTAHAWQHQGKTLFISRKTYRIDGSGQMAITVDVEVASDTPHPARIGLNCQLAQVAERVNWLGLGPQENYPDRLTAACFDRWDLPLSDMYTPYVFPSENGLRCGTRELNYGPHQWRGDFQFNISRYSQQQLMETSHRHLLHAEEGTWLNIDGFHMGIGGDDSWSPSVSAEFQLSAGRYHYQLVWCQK

[16] = target: C-C chemokine receptor type 6 (Homo sapiens, UniProt P51684); test: antagonism of CCR6 beta-arrestin recruitment – cell-based, luminescent beta-arrestin readout, dose response (AID 504728); assay type: functional
Chain of C-C chemokine receptor type 6 (P51684 whole entry): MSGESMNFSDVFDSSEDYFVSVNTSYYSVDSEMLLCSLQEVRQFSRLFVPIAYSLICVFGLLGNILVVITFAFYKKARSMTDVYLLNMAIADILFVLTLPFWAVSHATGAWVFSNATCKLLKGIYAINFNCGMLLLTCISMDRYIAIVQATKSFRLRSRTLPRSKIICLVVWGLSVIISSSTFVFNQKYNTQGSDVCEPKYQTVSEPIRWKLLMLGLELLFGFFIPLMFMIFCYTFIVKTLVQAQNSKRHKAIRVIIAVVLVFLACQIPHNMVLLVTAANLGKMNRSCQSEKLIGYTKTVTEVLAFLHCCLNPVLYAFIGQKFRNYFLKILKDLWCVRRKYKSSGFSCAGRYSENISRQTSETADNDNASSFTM

Cc1ccc(C(=O)c2cc([N+](=O)[O-])ccc2N2CCOCC2)c(C)c1
EC50 [1]: 14.2 µM (active) | EC50 [2]: 0.78 µM (inconclusive) | EC50 [3]: 0.764 µM (active) | EC50 [4]: 0.637 µM (active) | IC50 [5]: > 80 µM (inactive) | IC50 [6]: < 0.05 µM (inactive)

Cc1ccc(N2C(=O)C3C4C=CC(CN=C(S)Nc5ccc(Cl)cc5)(O4)C3C2=O)cc1 (stereo unspecified)
IC50 [7]: 42.8 µM (not active) | IC50 [8]: 18.9 µM (not active) | AC50 [9]: 25.4 µM (active)

CC1(C)CC(=O)N(CC(=O)O)c2ccccc2S1
EC50 [10]: > 50 µM (not active)

O=C(COc1ccccc1Cl)N1CCN(c2ccc([N+](=O)[O-])c(N3CCCCC3)c2)CC1
IC50 [11]: > 100 µM (inactive)

O=C1/C(=C/c2cccnc2)SC(=S)N1C1CCS(=O)(=O)C1 (stereo unspecified)
IC50 [12]: 33.8 µM (active) | EC50 [13]: 0.445 µM (active) | IC50 [14]: 49.1 µM (active)

CC[N+]1(C)CCC(O)(/C=C/c2ccccc2)C(C(=O)/C=C/c2ccccc2)C1 (stereo unspecified)
IC50 [15]: > 66.6 µM (inactive) | IC50 [16]: 39.9 µM (inactive)

— ChEMBL document CHEMBL1201862, “PubChem BioAssay data set” (2004)
